Data on 14 compounds can be found in ChEMBL document CHEMBL3244230, “Synthesis and gastric antisecretory properties of 15-deoxy-16-hydroxyprostaglandin E analogues” (1977).

Molecules are shown by their SMILES. Active and inactive are the calls of the source. The rule behind the calls is not given here.

Test [1] deals with Canis familiaris. The experiment in a line: Gastric antisecretory activity in iv dosed Mongrel dog with heidenhain pouch assessed as inhibition of histamine-induced total acid output by titrimetric method. Format: functional. As to conditions: Canis lupus familiaris, read-out: ID50 (the source's name).
Test [2] relates to Canis familiaris. The experiment in a line: Gastric antisecretory activity in Mongrel dog with heidenhain pouch assessed as inhibition of histamine-induced total acid output at 0.1 to 100 ug/kg, iv by titrimetric method relative to PGE1. It is filed as functional, Canis lupus familiaris.
Test [3] relates to Canis familiaris. Nature of the test: Gastric antisecretory activity in Mongrel dog with heidenhain pouch assessed as inhibition of histamine-induced total acid output at 30 ug/kg, iv by titrimetric method. It is filed as functional, organism-based. Particulars: Canis lupus familiaris.

For `CCCCC[C@H](O)/C=C/[C@H]1[C@H](O)CC(=O)[C@@H]1CCCCCCC(=O)O` [ALPROSTADIL], the ED50 in test [1] came to 6.7 µg/kg.

On to `CCCCC(C)(O)C/C=C/[C@H]1[C@H](O)CC(=O)[C@@H]1CCCCCCC(=O)OC` (mixture of isomers) [MISOPROSTOL], for which the ED50 in test [1] is 0.16 µg/kg. Besides, the “fold change (FC)” value in test [2] was found to be 47.8.

Turning to `CCCCC(C)(O)C/C=C/[C@H]1[C@H](O)CC(=O)[C@@H]1C/C=C\CCCC(=O)OC` (mixture of isomers), the ED50 in test [1] came to 0.3 µg/kg. For the same compound, in test [2], the “fold change (FC)” value worked out at 24.9.

With `CCCCC(O)(CC)C/C=C/[C@H]1[C@H](O)CC(=O)[C@@H]1CCCCCCC(=O)OC` (mixture of isomers), the ED50 in test [1] worked out at 27.8 µg/kg. For the same compound, in test [2], the “fold change (FC)” value is recorded as 0.21.

Turning to `CCCCC(O)C/C=C/[C@H]1[C@H](O)CC(=O)[C@@H]1C/C=C\CCCC(=O)OC` (mixture of isomers), the ED50 in test [1] is 4.1 µg/kg. Besides, in test [2], the “fold change (FC)” value turned out to be 1.9.

Consider `CCCCCC(C)(O)C/C=C/[C@H]1[C@H](O)CC(=O)[C@@H]1CCCCCCC(=O)OC` (mixture of isomers), for which, in test [1], the ED50 turned out to be 0.31 µg/kg. Moreover, in test [2], the “fold change (FC)” value was 19.9.

On to `CCCCC(O)C/C=C/[C@H]1[C@H](O)CC(=O)[C@@H]1CCCCCCC(=O)OC` (mixture of isomers), for which, in test [1], the ED50 amounted to 5.4 µg/kg. For the same compound, the “fold change (FC)” value in test [2] was determined as 0.7.

As to `CCCCC(C)(O)C/C=C/[C@H]1[C@@H](O)CC(=O)[C@@H]1CCCCCCC(=O)OC` (mixture of isomers), in test [1], the ED50 amounted to 16.9 µg/kg. In test [2], the “fold change (FC)” value is recorded as 0.21.

For `CCCCC(O)C(C)(C)/C=C/[C@H]1[C@H](O)CC(=O)[C@@H]1CCCCCCC(=O)OC` (mixture of isomers), the ED50 in test [1] worked out at 140 µg/kg. For the same compound, the “fold change (FC)” value in test [2] came to 0.05.

In the case of `CCCCC[C@H](O)/C=C/[C@H]1[C@H](O)CC(=O)[C@@H]1CCCCCCC(=O)OC`, in test [1], the ED50 was determined as 3.8 µg/kg. Also, the “fold change (FC)” value in test [2] is recorded as 2.3.

As for `CCCCC(C)(O)C/C=C/[C@H]1CCC(=O)[C@@H]1CCCCCCC(=O)O` (mixture of isomers), the ED50 in test [1] was found to be 4.3 µg/kg. Also, in test [2], the “fold change (FC)” value worked out at 1.5.

With `CCCCC(C)(O)CCC[C@H]1[C@H](O)CC(=O)[C@@H]1CCCCCCC(=O)OC` (mixture of isomers), the ED50 in test [1] came out at 5.9 µg/kg. Moreover, the “fold change (FC)” value in test [2] is 0.98.

`CCCC(C)(C)C(O)C/C=C/[C@H]1[C@H](O)CC(=O)[C@@H]1CCCCCCC(=O)OC` (mixture of isomers): in test [3], the inhibition entry was “inactive”.

In the case of `CCCCC(C)(O)C/C=C\[C@H]1[C@H](O)CC(=O)[C@@H]1CCCCCCC(=O)OC` (mixture of isomers), the ED50 in test [1] was determined as 39.8 µg/kg. Further, in test [2], the “fold change (FC)” value is 0.17.
